Results on 2 compounds are retold here after patent publication US20150018403A1, “FLUORENE-AMIDE COMPOUNDS AND PHARMACEUTICAL USE THEREOF” (JAPAN TOBACCO INC., priority 2013, published 2015).

The term inhibition denotes the change of the read-out against control, counted positive when it falls. As usually defined, the IC50 is the concentration needed to halve the response being measured. A lower IC50 goes with higher potency.

Data set [1] can be described thus: Metabolic stability test in human liver microsome. Type of data set: in vitro ADME. To be noted: 37° C., 5 μM. The protocol:
Human liver microsome (manufactured by Xenotech, H0620, final concentration (after dilution), 0.2 mg protein/mL) was suspended in 100 mM potassium phosphate buffer (pH 7.4, containing β-nicotinamide adenine dinucleotide phosphate: 1.3 mM, D-glucose-6-phosphate: 3.3 mM, magnesium chloride: 3.3 mM, glucose-6-phosphate dehydrogenase: 0.45 U/mL), and further mixed with a test compound dissolved in MeCN/DMSO (95/5) (final concentration 5 μM). The mixture was incubated at 37° C. for 10 min and 60 min, acetonitrile containing formic acid (final concentration 0.1%) was added, and the mixture was centrifuged. The test compound (unmodified) in the supernatant was measured by high performance liquid chromatography/mass spectrometry (LC/MS) (manufactured by Waters, LC: Acquity UPLC, MS:SQ Detector or TQ Detector). The residual ratio (%) was calculated from the obtained measurement value.

For data set [2], the target named is T1, hERG (Homo sapiens, UniProt Q12809).
T1 construct: host or cells: HEK293
The data set is described as follows: hERG whole cell patch clamp test. Type of data set: cell-based. The following applies: human, HEK293 cells transfected with hERG, pH 7.4, read-out: hERG inhibition rate (%); for inhibition at 10 μmol/L: concentration 10 μmol/L. The protocol: (§1) Using human ether-a-go-go related gene (hERG)-transfected HEK293 cells (Cytomyx Limited), an influence on hERG current was examined according to the whole cell patch clamp technique. The hERG-transfected HEK293 cells were passaged using a CO2 incubator (BNA-111, TABAI ESPEC CORP.) under the set conditions of 37° C., 5% CO2, saturated humidity. Culture containers used were Collagen Type I Coated 75 cm^2 flask (4123-010, AGC TECHNO GLASS CO., Ltd.) and Collagen Type I Coated 35 mm culture dish (4000-010, AGC TECHNO GLASS CO., Ltd.). The culture medium used was E-MEM (Eagle Minimum Essential Medium (Earle's Salts, Nikken biomedical laboratory) added with 10% FCS (Fetal bovine serum, BioWest, L.L.C.) and 1% MEM Non-Essential Amino Acids Solution (NEAA, Invitrogen Corporation). Geneticin for the selection of hERG gene expressing cells was added thereto to a concentration of 400 μg/mL. As the cells for the measurement, 3×10^4 hERG-transfected HEK293 cells were plated on a 35 mm culture dish 4 to 7 days before measurement of the hERG current. The culture dish produced for the measurement contained the above-mentioned culture medium without geneticin (Invitrogen Corporation).
(§2) The highest evaluation concentration of each compound was determined from the highest concentration at which precipitation was not found in the standard extracellular fluid (NaCl: 140 mmol/L, KCl: 2.5 mmol/L, MgCl2: 2 mmol/L, CaCl2: 2 mmol/L, HEPES: 10 mmol/L, glucose: 10 mmol/L (adjusted to pH 7.4 with Tris-base)). As the application method, each solution to be applied was ejected from a Y-tube having a tip diameter of about 0.25 mm, which was adjacent (about 2 mm) to the cells, and applied to the cells. The ejection rate was about 0.4 mL/min.
(§3) The experiment was performed at room temperature under a phase contrast microscope. The 35 mm culture dish plated with the cells was set on a measurement apparatus, and the standard extracellular fluid was continuously applied to the cells from the Y-tube. A glass electrode for the measurement was filled with an intracellular fluid (Potassium Gluconate: 130 mmol/L, KCl: 20 mmol/L, MgCl2: 1 mmol/L, ATP-Mg: 5 mmol/L, EGTA: 3.5 mmol/L, HEPES: 10 mmol/L (adjusted to pH 7.2 with Tris-base)). A conventional whole cell patch clamp method was applied to the cells, and the maintenance electric potential was set to −80 mV. Under a fixed electric potential, the whole cell current was amplified by an amplifier for patch clamp (AXOPATCH-200B, Axon Instruments, Inc.), and the data was loaded into a computer (IMC-P642400, Intermedical Co., Ltd.) using a data acquisition analysis software (pCLAMP 9.2, Axon Instruments, Inc.).
(§4) The measurement of the hERG current was performed in the following two steps. In both cases, the hERG current was initiated by giving a command potential (maintenance electric potential −80 mV, prepulse+20 mV, 1.5 sec, test-pulse −50 mV, 1.5 sec).
(§5) Step (1): The above-mentioned command potential was given at 0.1 Hz for 2 min.
(§6) Step (2): The above-mentioned command potential was subjected to P/3 subtraction of pCLAMP 9.2 to remove leak current. This was repeated three times and an average thereof was taken as hERG current.
(§7) Subsequent to step (1), Step (2) was performed (about 3 min), and the maximum tail current obtained by applying a test-pulse to the hERG current obtained by the method of step (2) was taken as hERG current value. Hereafter, the operations of (1) and (2) were alternately repeated until completion of the experiment and the hERG current value was measured.
(§8) Stable hERG current value was recorded three times (about 10 min), and the standard extracellular fluid was instantaneously exchanged with each application fluid. The hERG current value was measured three times (about 10 min) in the same manner during perfusion of the application fluid, and the current value obtained by the 3rd measurement was taken as hERG current value after perfusion of the application fluid. […]
In general terms: hERG is a cardiac potassium channel; its block is linked to QT prolongation.

The target in data set [3] is T2, hERG current (hERG-transfected HEK293 cells) (Homo sapiens, UniProt Q12809).
T2 construct: host or cells: HEK293
As to the kind of experiment: hERG whole cell patch clamp test. Type of data set: cell-based. To be noted: whole cell patch clamp, hERG-transfected HEK293 cells. The protocol: as §1, §2, §3, §4, §5, §6, §7, §8

T1 sequence (Q12809 whole entry): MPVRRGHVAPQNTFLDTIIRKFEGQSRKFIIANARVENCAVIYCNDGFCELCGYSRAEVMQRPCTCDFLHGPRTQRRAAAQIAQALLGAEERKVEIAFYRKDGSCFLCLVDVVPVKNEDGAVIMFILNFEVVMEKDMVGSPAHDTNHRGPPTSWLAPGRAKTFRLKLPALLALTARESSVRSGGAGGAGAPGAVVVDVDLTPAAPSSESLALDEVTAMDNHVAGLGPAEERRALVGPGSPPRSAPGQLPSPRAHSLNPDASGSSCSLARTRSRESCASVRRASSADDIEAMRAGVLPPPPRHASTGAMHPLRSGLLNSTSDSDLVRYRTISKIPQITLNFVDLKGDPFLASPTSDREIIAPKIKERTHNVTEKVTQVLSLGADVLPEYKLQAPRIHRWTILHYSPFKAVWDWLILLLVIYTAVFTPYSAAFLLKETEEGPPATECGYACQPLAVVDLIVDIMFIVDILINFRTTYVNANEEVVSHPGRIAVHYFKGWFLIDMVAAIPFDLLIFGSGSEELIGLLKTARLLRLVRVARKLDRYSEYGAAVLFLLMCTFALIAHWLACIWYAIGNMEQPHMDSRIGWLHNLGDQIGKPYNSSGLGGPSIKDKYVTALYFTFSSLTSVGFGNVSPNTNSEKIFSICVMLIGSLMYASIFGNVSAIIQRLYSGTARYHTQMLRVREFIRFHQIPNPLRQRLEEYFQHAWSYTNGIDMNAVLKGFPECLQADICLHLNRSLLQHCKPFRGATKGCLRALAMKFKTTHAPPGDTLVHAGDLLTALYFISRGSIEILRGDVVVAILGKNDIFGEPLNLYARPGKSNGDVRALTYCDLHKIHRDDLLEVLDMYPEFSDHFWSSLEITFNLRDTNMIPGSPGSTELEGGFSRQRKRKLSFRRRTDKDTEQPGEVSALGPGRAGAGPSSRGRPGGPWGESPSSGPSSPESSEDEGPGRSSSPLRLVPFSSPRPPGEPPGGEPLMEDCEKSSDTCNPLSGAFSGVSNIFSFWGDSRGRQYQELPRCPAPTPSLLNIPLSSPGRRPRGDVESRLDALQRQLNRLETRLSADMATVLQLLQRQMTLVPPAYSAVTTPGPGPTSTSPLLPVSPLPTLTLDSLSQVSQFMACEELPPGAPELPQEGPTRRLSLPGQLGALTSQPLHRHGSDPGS
T2 sequence (Q12809 whole entry): as above

Consider `C[C@H](O)COc1cc(-c2cnn(C(C)(C)C(N)=O)c2)c2c(c1)[C@@](O)(C(F)(F)F)c1ccccc1-2` [compound (2), 2-(4-{(9R)-9-hydroxy-2-[(2S)-2-hydroxypropoxy]-9-(trifluoromethyl)-9H-fluoren-4-yl}-1H-pyrazol-1-yl)-2-methylpropanamide], for which the “stability in liver microsome (residual ratio %)” value is 98.9% in data set [1] (10 min) and 97.2% in data set [1] (60 min). The inhibition at 10 μmol/L in data set [2] came to 7.5%. Moreover, in data set [2] (concentration 100 μmol/L), the inhibition at 100 μmol/L is 62.9%. Besides, the 50% inhibitory concentration (IC50) in data set [3] turned out to be 58.8 µM.
In the case of `Cn1cc(-c2cc(OCC(C)(C)O)cc3c2-c2ccccc2[C@]3(O)C(F)(F)F)cn1` [compound (B), (9R)-2-(2-Hydroxy-2-methylpropoxy)-4-(1-methyl-1H-pyrazol-4-yl)-9-(trifluoromethyl)-9H-fluoren-9-ol, reference compound], the “stability in liver microsome (residual ratio %)” value is given as 98.0% in data set [1] (10 min) and 88.2% in data set [1] (60 min). The inhibition at 1 μmol/L in data set [2] (concentration 1 μmol/L) is 17.4%. In addition, the inhibition at 10 μmol/L in data set [2] came out at 72.9%. The 50% inhibitory concentration (IC50) in data set [3] stood at 3.6 µM.
